Reference: ChEMBL document CHEMBL1147238, “Komodoquinone A, a novel neuritogenic anthracycline, from marine Streptomyces sp. KS3” (J Nat Prod, 2003)
Active and inactive are the calls of the source. The calls are words filed in the database; no cut-off is given here.

Legend:
N2a [1] = assay: Neuritogenic activity in mouse Neuro2a cells assessed as morphological changes at 1 ug/mL after 24 or 48 hrs; type: functional, cell-based
N2a [2] = assay: Neuritogenic activity in mouse Neuro2a cells assessed as morphological changes at 3 ug/mL after 24 or 48 hrs; type: functional, cell-based

Row | SMILES | Activity (N2a [1]) | Activity (N2a [2])
1 | C[C@@H]1O[C@@H](Oc2cccc3c2C(=O)c2c(O)c4c(c(O)c2C3=O)C[C@](C)(O)C[C@@H]4O)[C@@H](O)[C@H](N(C)C)[C@@H]1O | Active | –
2 | COc1cccc2c1C(=O)c1c(O)c3c(c(O)c1C2=O)C[C@@](O)(C(=O)CO)C[C@@H]3O[C@H]1C[C@H](N)[C@H](O)[C@H](C)O1 | – | inactive
